Patent publication US9428504B2, “7-hydroxy-spiropipiperidine indolinyl antagonists of P2Y1 receptor” (BRISTOL-MYERS SQUIBB COMPANY, priority 2012, dated 2016)
Counter-ions that a name gives are not always drawn.

Experiments:
[1] = system: human platelet rich plasma (PRP); experiment: ADP induced platelet aggregation assay; conditions: Homo sapiens, Platelet, read-out: PA IC50 (μM) @ 10 μM ADP, platelet aggregation induced by 10 μM ADP, human PRP
[2] = target: cloned human P2Y1 receptors (Homo sapiens (Human), UniProt P47900); experiment: Binding Assay B: Scintillation Proximity Assay (SPA) for P2Y1 binding; conditions: SPA, [33P] 2MeS-ADP displacement; read-out: P2Y1 Ki (nM) using binding assay B
Protocol: A SPA membrane binding assay was used to identify inhibitors of [^33P] […] Binding reactions were performed in 384-well OptiPlates (PerkinElmer Life Sciences, Cat #6007299) in a volume of 50 μL containing ˜15 fmol of P2Y1 receptor (1.7 μg of total protein), 0.3 nM [^33P] […] Reactions were allowed to proceed to completion at room temperature for 1 hour followed by centrifugation of the plate for 5 min. About 40 μL of the aqueous solution was aspirated. Plates were sealed and the [^33P]

cloned human P2Y1 receptors, sequence (P47900 whole entry): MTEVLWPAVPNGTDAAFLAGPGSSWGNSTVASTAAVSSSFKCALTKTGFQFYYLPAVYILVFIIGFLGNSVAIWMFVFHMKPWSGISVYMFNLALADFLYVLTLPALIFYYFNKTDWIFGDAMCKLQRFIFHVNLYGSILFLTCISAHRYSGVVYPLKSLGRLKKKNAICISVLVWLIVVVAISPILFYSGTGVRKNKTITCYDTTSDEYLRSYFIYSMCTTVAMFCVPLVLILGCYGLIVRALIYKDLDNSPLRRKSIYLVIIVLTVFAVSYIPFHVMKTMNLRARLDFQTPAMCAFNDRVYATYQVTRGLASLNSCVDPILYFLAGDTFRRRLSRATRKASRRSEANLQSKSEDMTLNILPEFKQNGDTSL

SMILES | IC50 [1] | Ki [2]
CC(C)(C)CN1CCC2(CC1)CN(c1ccccc1NC(=O)Nc1ccc(OC(F)F)cc1)c1c(O)ccc(C(F)(F)F)c12 [Example 17, 1-(4-(Difluoromethoxy)phenyl)-3-(2-(7-hydroxy-1′-neopentyl-4-(trifluoromethyl)spiro[indoline-3,4′-piperidine]-1-yl)phenyl)urea] | 0.4 µM | 9 nM
CC(C)(C)CN1CCC2(CC1)CN(c1ccccc1NC(=O)Nc1csc(Cl)n1)c1c(O)ccc(C(F)(F)F)c12 [Example 18, 1-(2-Chlorothiazol-4-yl)-3-(2-(7-hydroxy-1′-neopentyl-4-(trifluoromethyl)spiro[indoline-3,4′-piperidine]-1-yl)phenyl)urea] | 0.1 µM | 6.2 nM
CC(C)c1nsc(NC(=O)Nc2ccccc2N2CC3(CCN(CC(C)(C)C)CC3)c3c(C(F)(F)F)ccc(O)c32)n1 [Example 19, 1-(2-(7-Hydroxy-1′-neopentyl-4-(trifluoromethyl)spiro[indoline-3,4′-piperidine]-1-yl)phenyl)-3-(3-isopropyl-1,2,4-thiadiazol-5-yl)urea] | 0.2 µM | 7.5 nM
CC(C)(C)CN1CCC2(CC1)CN(c1ccccc1NC(=O)Nc1ccc(F)cc1F)c1c(O)ccc(C(F)(F)F)c12 [Example 20, 1-(2,4-Difluorophenyl)-3-(2-(7-hydroxy-1′-neopentyl-4-(trifluoromethyl)spiro[indoline-3,4′-piperidine]-1-yl)phenyl)urea] | 0.2 µM | 3.2 nM
CC(C)(C)CN1CCC2(CC1)CN(c1ccccc1NC(=O)Nc1nc3ccc(Cl)cc3s1)c1c(O)ccc(C(F)(F)F)c12 [Example 21, 1-(6-Chlorobenzo[d]thiazol-2-yl)-3-(2-(7-hydroxy-1′-neopentyl-4-(trifluoromethyl)spiro[indoline-3,4′-piperidine]-1-yl)phenyl)urea] | 0.4 µM | 30.9 nM
CC(C)(C)CN1CCC2(CC1)CN(c1ccccc1NC(=O)Nc1ccc(C(F)(F)F)cc1)c1c(O)ccc(C(F)(F)F)c12 [Example 22, 1-(2-(7-Hydorxy-1′-neopentyl-4-(trifluoromethyl)spiro[indoline-3,4′-piperidine]-1-yl)phenyl)-3-(4-(trifluoromethyl)phenyl)urea] | 0.2 µM | 4.4 nM
CC(C)(C)CN1CCC2(CC1)CN(c1ccccc1NC(=O)Nc1ccc(C(F)(F)F)nc1)c1c(O)ccc(C(F)(F)F)c12 [Example 23, 1-(2-(7-Hydroxy-1′-neopentyl-4-(trifluoromethyl)spiro[indoline-3,4′-piperidine]-1-yl)phenyl)-3-(6-(trifluoromethyl)pyridin-3-yl)urea] | 1.1 µM | 8 nM
CC(C)(C)CN1CCC(NC(=O)Nc2ccccc2N2CC3(CCN(CC(C)(C)C)CC3)c3c(C(F)(F)F)ccc(O)c32)CC1 [Example 24, 1-(2-(7-Hydroxy-1′-neopentyl-4-(trifluoromethyl)spiro[indoline-3,4′-piperidine]-1-yl)phenyl)-3-(1-neopentylpiperidin-4-yl)urea] | 0.4 µM | 14.8 nM
Cc1nc(NC(=O)Nc2ccccc2N2CC3(CCN(CC(C)(C)C)CC3)c3c(C(F)(F)F)ccc(O)c32)cs1 [Example 25, 1-(2-(7-Hydroxy-1′-neopentyl-4-(trifluoromethyl)spiro[indoline-3,4′-piperidine]-1-yl)phenyl)-3-(2-methylthiazol-4-yl)urea] | 0.1 µM | 4.9 nM
CC(C)(C)CN1CCC2(CC1)CN(c1ccccc1NC(=O)Nc1csc(Cl)c1)c1c(O)ccc(C(F)(F)F)c12 [Example 26, 1-(5-Chlorothiophen-3-yl)-3-(2-(7-hydroxy-1′-neopentyl-4-(trifluoromethyl)spiro[indoline-3,4′-piperidine]-1-yl)phenyl)urea] | 0.2 µM | 7.3 nM
CC(C)(C)CN1CCC2(CC1)CN(c1ccccc1NC(=O)NC1CCC(C(C)(C)C)CC1)c1c(O)ccc(C(F)(F)F)c12 (stereo not shown) [Example 27, 1-(4-tert-Butylcyclohexyl)-3-(2-(7-hydroxy-1′-neopentyl-4-(trifluoromethyl)spiro[indoline-3,4′-piperidine]-1-yl)phenyl)urea] | 0.7 µM | 9.6 nM
CC(C)c1nc(NC(=O)Nc2ccccc2N2CC3(CCN(CC(C)(C)C)CC3)c3c(C(F)(F)F)ccc(O)c32)cs1 [Example 28, 1-(2-(7-Hydroxy-1′-neopentyl-4-(trifluoromethyl)spiro[indoline-3,4′-piperidine]-1-yl)phenyl)-3-(2-isopropylthiazol-4-yl)urea] | 0.8 µM | 6.6 nM
CC(C)(C)CN1CCC2(CC1)CN(c1ccccc1NC(=O)Nc1nccs1)c1c(O)ccc(C(F)(F)F)c12 [Example 29, 1-(2-(7-Hydroxy-1′-neopentyl-4-(trifluoromethyl)spiro[indoline-3,4′-piperidine]-1-yl)phenyl)-3-(thiazol-2-yl)urea] | 0.4 µM | 6.4 nM
CC(C)CN1CCC2(CC1)CN(c1ccccc1NC(=O)Nc1nc3ccc(Cl)cc3s1)c1c(O)ccc(C(F)(F)F)c12 [Example 30, 1-(6-Chlorobenzo[d]thiazol-2-yl)-3-(2-(7-hydroxy-1′-isobutyl-4-(trifluoromethyl)spiro[indoline-3,4′-piperidine]-1-yl)phenyl)urea] | 0.1 µM | 14.5 nM
CC(C)CN1CCC2(CC1)CN(c1ccccc1NC(=O)Nc1nc3ccc(F)cc3s1)c1c(O)ccc(C(F)(F)F)c12 [Example 31, 1-(6-Fluorobenzo[d]thiazol-2-yl)-3-(2-(7-hydroxy-1′-isobutyl-4-(trifluoromethyl)spiro[indoline-3,4′-piperidine]-1-yl)phenyl)urea] | 0.1 µM | 16.4 nM
CC(C)(C)CN1CCC2(CC1)CN(c1ccccc1NC(=O)Nc1nc3ccc(F)cc3s1)c1c(O)ccc(F)c12 [Example 32, 1-(2-(4-Fluoro-7-hydroxy-1′-neopentylspiro[indoline-3,4′-piperidine]-1-yl)phenyl)-3-(6-fluorobenzo[d]thiazol-2-yl)urea] | 0.3 µM | 7.4 nM
COc1ccc2nc(NC(=O)Nc3ccccc3N3CC4(CCN(CC(C)(C)C)CC4)c4c(F)ccc(O)c43)sc2c1 [Example 36, 1-(2-(4-Fluoro-7-hydroxy-1′-neopentylspiro[indoline-3,4′-piperidine]-1-yl)phenyl)-3-(6-methoxybenzo[d]thiazol-2-yl)urea] | 0.9 µM | 7.9 nM
CC(C)(C)CN1CCC2(CC1)CN(c1ccccc1NC(=O)Nc1ccc(C(F)(F)F)cc1)c1c(O)ccc(F)c12 [Example 37, 1-(2-(4-Fluoro-7-hydroxy-1′-neopentylspiro[indoline-3,4′-piperidine]-1-yl)phenyl)-3-(4-(trifluoromethyl)phenyl)urea] | 1 µM | 7.2 nM
CC(C)(C)CN1CCC2(CC1)CN(c1ccccc1NC(=O)Nc1nc3ccc(Cl)cc3s1)c1c(O)ccc(Cl)c12 [Example 38, 1-(2-(4-Chloro-7-hydroxy-1′-neopentylspiro[indoline-3,4′-piperidine]-1-yl)phenyl)-3-(6-chlorobenzo[d]thiazol-2-yl)urea] | 0.4 µM | 10 nM
CC(C)(C)CN1CCC2(CC1)CN(c1ccccc1NC(=O)Nc1nc3ccc(F)cc3s1)c1c(O)ccc(Cl)c12 [Example 39, 1-(2-(4-Chloro-7-hydroxy-1′-neopentylspiro[indoline-3,4′-piperidine]-1-yl)phenyl)-3-(6-fluorobenzo[d]thiazol-2-yl)urea] | 0.2 µM | 3.8 nM
Cc1ccc2nc(NC(=O)Nc3ccccc3N3CC4(CCN(CC(C)(C)C)CC4)c4c(Cl)ccc(O)c43)sc2c1 [Example 40, 1-(2-(4-Chloro-7-hydroxy-1′-neopentylspiro[indoline-3,4′-piperidine]-1-yl)phenyl)-3-(6-methylbenzo[d]thiazol-2-yl)urea] | 0.5 µM | 5.6 nM
COC(=O)c1ccc2nc(NC(=O)Nc3ccccc3N3CC4(CCN(CC(C)(C)C)CC4)c4c(Cl)ccc(O)c43)sc2c1 [Example 41, Methyl 2-(3-(2-(4-Chloro-7-hydroxy-1′-neopentylspiro[indoline-3,4′-piperidine]-1-yl)phenyl)ureido)benzo [d]thiazole-6-carboxylate] | 0.7 µM | 7.2 nM
CCSc1nsc(NC(=O)Nc2ccccc2N2CC3(CCN(CC(C)(C)C)CC3)c3c(Cl)ccc(O)c32)n1 [Example 44, 1-(2-(4-Chloro-7-hydroxy-1′-neopentylspiro[indoline-3,4′-piperidine]-1-yl)phenyl)-3-(3-(ethylthio)-1,2,4-thiadiazol-5-yl)urea] | 0.1 µM | 7.3 nM
CC(C)(C)CN1CCC2(CC1)CN(c1ccccc1NC(=O)Nc1nc3c(s1)CCCC3)c1c(O)ccc(Cl)c12 [Example 45, 1-(2-(4-Chloro-7-hydroxy-1′-neopentylspiro[indoline-3,4′-piperidine]-1-yl)phenyl)-3-(4,5,6,7-tetrahydrobenzo[d]thiazol-2-yl)urea, TFA] | 0.3 µM | 9.5 nM
CC(C)(C)CN1CCC2(CC1)CN(c1ccccc1NC(=O)Nc1nc3c(s1)CCC3)c1c(O)ccc(Cl)c12 [Example 46, 1-(2-(4-Chloro-7-hydroxy-1′-neopentylspiro[indoline-3,4′-piperidine]-1-yl)phenyl)-3-(5,6-dihydro-4H-cyclopenta[d]thiazol-2-yl)urea, TFA] | 0.3 µM | 6.2 nM
COc1ccc2nc(NC(=O)Nc3ccccc3N3CC4(CCN(CC(C)(C)C)CC4)c4c(Cl)ccc(O)c43)sc2c1 [Example 47, 1-(2-(4-Chloro-7-hydroxy-1′-neopentylspiro[indoline-3,4′-piperidine]-1-yl)phenyl)-3-(6-methoxybenzo[d]thiazol-2-yl)urea, TFA] | 0.3 µM | 9.4 nM
